Assay results taken from US5401771A, “Method of combatting household insects” (priority 1992, dated 1995).

Assays:
housefly = test: Study of the killing effect on the housefly (direct spraying, Kearns and March chamber); type: in vivo; settings: for KT50 (time where 50% of the insects were killed): 4-day old female houseflies, direct spraying, dose 0.25 g/l, Isopar L with 5% acetone
Experimental: A. Study of the killing effect on the housefly.
The insects used were 4-day old female houseflies and the operation was carried out by direct spraying at a concentration of 0.25 g/1 in a Kearns and March chamber. The tested product was dissolved in Isopar L (petroleum solvent) with 5% acetone. 2 ml of solution were sprayed per second and 50 insects were used per treatment Checks were carried out every minute for 10 minutes, then after 15 minutes. The (KT50) time in minutes where 50% of the insects were killed was determined and the results are in Table I.

[1] = test system: cockroaches (Blattella germanica); test: Study of the knock-down effect on cockroaches (direct spraying); type: in vivo; settings: for percentage of cockroaches knocked down at 500 µg/mL / percentage of cockroaches knocked down at 100 µg/mL: Blattella germanica, 5 min, after 5 minutes, 12-week old males, read-out: KD (percentage of cockroaches knocked down), printed % KILLED; for percentage of cockroaches knocked down at 500 µg/mL: 500 mg/l; for percentage of cockroaches knocked down at 100 µg/mL: 100 mg/l
Experimental: B. Study of the knock-down effect on cockroaches
The test was carried out on 12-week old male cockroaches (Blattella germanica) and the operation was carried out by direct spraying in a 13.5 cm diameter glass chamber. The product tested was dissolved in Isopar and 0.75 ml of solution was sprayed for 2.5 seconds on 20 cockroaches having been placed beforehand in the chamber. The KD (percentage of cockroaches knocked down) after 5 minutes at a dose of 500 mg/1 was determined and the products corresponding to 100% of KD insects at this does were evaluated at a dose of 100 mg/1 by the same protocol and the results are in Table II.

[2] = Acute toxicity on mammals by oral route; type: in vivo, rats; settings: rat, in vivo, rats, vehicle corn oil, read-out: LD50 O.R. (oral route)
Experimental: (§1) C. Acute toxicity on mammals
(§2) type: rats, vehicle: corn oil.
(§3) The results were expressed in LD50 mg/kg and the results obtained are as follows: […]

[3] = Acute toxicity on mammals by intravenous route; type: in vivo, rats; settings: rat, in vivo, rats, vehicle PEG 300, read-out: LD50 I.R. (intravenous route)
Experimental: as §1
(§4) type: rats, vehicle: PEG 300.
as §3

rats [4] = test: Acute toxicity on mammals by oral route; type: in vivo; settings: relative to C (cis E)
Experimental: as §1, §2, §3

rats [5] = test: Acute toxicity on mammals by intravenous route; type: in vivo; settings: relative to C (cis E)
Experimental: as §1, §4, §3

[6] = conclusion in words, equivalent notably to C (cis E)

| SMILES | KT50 (time where 50% of the insects were killed) (housefly) [min] | percentage of cockroaches knocked down at 500 µg/mL [1] [%] | percentage of cockroaches knocked down at 100 µg/mL [1] [%] | LD50 [2] [mg/kg] | LD50 [3] [mg/kg] | killing activity on cockroaches [1, 6] | toxicity on mammals lower than that of C (cis E), orally (rats [4]) | killing activity on flies (housefly; [6]) | toxicity on mammals lower than that of C (cis E), intravenously (rats [5]) |
| --- | --- | --- | --- | --- | --- | --- | --- | --- | --- |
| C=CCC1=C(C)C(OC(=O)[C@@H]2[C@@H](C=C(C)C)C2(C)C)CC1=O (stereo partly drawn) [Bioallethrin] | 10 | – | – | – | – | – | – | – | – |
| CC(C)=CC1C(C(=O)OCN2C(=O)C3=C(CCCC3)C2=O)C1(C)C (stereo not drawn) [TETRAMETHRIN, Tetramethrin] | – | 70 | – | – | – | – | – | – | – |
| COC(=O)/C(F)=C\[C@H]1[C@@H](C(=O)O[C@H](C#N)c2cccc(Oc3ccccc3)c2)C1(C)C [Product C] | 2.7 | – | 95 | ~100 | 0.1 to 0.5 | – | – | – | – |
| COC(=O)/C(F)=C/[C@@H]1[C@@H](C(=O)O[C@H](C#N)c2cccc(Oc3ccccc3)c2)C1(C)C [Product A, (S) α-cyano-3-phenoxy-benzyl(1R, trans) 2,2-dimethyl-3-[(ΔZ) 2-fluoro-3-oxo-3-methoxy-propenyl]-cyclopropane carboxylate] | 2.7 | – | 100 | > 2000 | ~10 | good killing activity | at least 20 times | good killing activity | at least 20 times |
| COC(=O)/C(F)=C\[C@@H]1[C@@H](C(=O)O[C@H](C#N)c2cccc(Oc3ccccc3)c2)C1(C)C [Product B] | – | – | 47 | > 200 | 2.5 to 5 | – | – | – | – |
| COC(=O)/C(F)=C/[C@H]1[C@@H](C(=O)O[C@H](C#N)c2cccc(Oc3ccccc3)c2)C1(C)C [Product D] | 3.7 | 90 | – | > 200 | 2.5 to 7.5 | – | – | – | – |
